The source made the active and inactive calls.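 The calls were made as follows: active = mean IC50 for reducing PEG3 promoter reporter signal at or below a set limit, with IC50 above the limit in both counter screens; inactive = the rest, including counter screen hits.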
Columns and labels:
[1] = Peg3 promoter luciferase inhibitors, potency, dose response, cell-based, HeLa, CREF/GAPDH counter-screen panel (AID 624167); conditions: CREF/GAPDH counter-screens; GAPDH; mean of runs
Rat fibroblasts (CREF) = experiment: as above; conditions: CREF/GAPDH counter-screens
GAPDH = experiment: as above; conditions: CREF/GAPDH counter-screens
PEG-3 [2] = experiment: as above; conditions: HeLa PEG-Prom luciferase reporter, overnight, CREF/GAPDH counter-screens
PEG-3 [3] = molecular target: PEG-3 (UniProt Q6IN02); experiment: as above; conditions: HeLa PEG-Prom luciferase reporter, overnight, CREF/GAPDH counter-screens, mean of runs
[4] = run 1, dose range 1, individual replicate IC50 per panel
[5] = run 2, dose range 1, individual replicate IC50 per panel

PEG-3 (UniProt Q6IN02), sequence (Q6IN02 whole entry, looked up): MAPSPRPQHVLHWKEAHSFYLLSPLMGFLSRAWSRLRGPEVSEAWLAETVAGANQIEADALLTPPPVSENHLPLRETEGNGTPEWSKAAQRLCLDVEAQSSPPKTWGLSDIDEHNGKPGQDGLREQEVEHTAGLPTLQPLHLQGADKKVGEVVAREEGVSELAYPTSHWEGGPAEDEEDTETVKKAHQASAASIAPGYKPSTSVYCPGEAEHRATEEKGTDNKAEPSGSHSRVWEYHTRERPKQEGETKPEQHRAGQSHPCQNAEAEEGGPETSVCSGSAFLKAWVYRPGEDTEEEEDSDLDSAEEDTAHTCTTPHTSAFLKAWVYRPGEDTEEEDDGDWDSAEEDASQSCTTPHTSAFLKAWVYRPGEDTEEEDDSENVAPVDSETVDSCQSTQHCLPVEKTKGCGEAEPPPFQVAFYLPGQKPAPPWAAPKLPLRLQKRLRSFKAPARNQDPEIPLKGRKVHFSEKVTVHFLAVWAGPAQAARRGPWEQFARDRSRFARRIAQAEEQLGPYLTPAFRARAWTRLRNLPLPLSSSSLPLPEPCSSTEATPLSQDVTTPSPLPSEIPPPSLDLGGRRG

In the case of CCCCC(=O)NC(c1ccc(OC)cc1)c1ccc2cccnc2c1O (configuration not stated), the IC50 [1] is reported as > 100 µM (inactive), the IC50 (Rat fibroblasts (CREF); mean of runs) is reported as > 100 µM (inactive) and the IC50 (Rat fibroblasts (CREF); [4]) is reported as over 100 µM. It also gave an IC50 (Rat fibroblasts (CREF); [5]) of over 100 µM, an IC50 (GAPDH; [4]) of over 100 µM and an IC50 (GAPDH; [5]) of over 100 µM. The IC50 (PEG-3 [2]; [4]) was 8.04 µM, the IC50 (PEG-3 [2]; [5]) was 7.99 µM and the IC50 (PEG-3 [3]) was 8.02 µM.
With CCc1ccc(/C=C2\SC(=S)N(CCCC(=O)NC3=NCCS3)C2=O)cc1 the IC50 [1] was 4.53 µM, the IC50 (Rat fibroblasts (CREF); mean of runs) was > 100 µM (inactive) and the IC50 (Rat fibroblasts (CREF); [4]) was over 100 µM. It also gave an IC50 (Rat fibroblasts (CREF); [5]) of over 100 µM, an IC50 (GAPDH; [4]) of 4.61 µM and an IC50 (GAPDH; [5]) of 4.45 µM. The IC50 (PEG-3 [2]; [4]) was 1.28 µM, the IC50 (PEG-3 [2]; [5]) was 1.14 µM and the IC50 (PEG-3 [3]) was 1.21 µM.
In the case of Cc1cc(C)c2sc(NNC(=O)c3ccc(S(=O)(=O)N4CCc5ccccc5C4)cc3)nc2c1, the IC50 [1] is reported as 20.9 µM, the IC50 (Rat fibroblasts (CREF); mean of runs) is reported as > 100 µM (inactive) and the IC50 (Rat fibroblasts (CREF); [4]) is reported as over 100 µM. For the same compound, the IC50 (Rat fibroblasts (CREF); [5]) was over 100 µM, the IC50 (GAPDH; [4]) was 10.4 µM and the IC50 (GAPDH; [5]) was 31.5 µM. For the same compound, the IC50 (PEG-3 [2]; [4]) was 0.939 µM, the IC50 (PEG-3 [2]; [5]) was 2.04 µM and the IC50 (PEG-3 [3]) was 1.49 µM.
For COc1cccc(/C=N/NC(=O)c2c(C)nc3ccc(Cl)cn23)c1O, the IC50 [1] was > 100 µM (inactive), the IC50 (Rat fibroblasts (CREF); mean of runs) was 69.6 µM (inactive) and the IC50 (Rat fibroblasts (CREF); [4]) was over 100 µM. For the same compound, the IC50 (Rat fibroblasts (CREF); [5]) was 39.3 µM, the IC50 (GAPDH; [4]) was over 100 µM and the IC50 (GAPDH; [5]) was over 100 µM. The IC50 (PEG-3 [2]; [4]) was 0.994 µM, the IC50 (PEG-3 [2]; [5]) was 0.513 µM and the IC50 (PEG-3 [3]) was 0.754 µM.
O=C(/C=C/c1ccc(Cl)c([N+](=O)[O-])c1)c1ccc(O)cc1 gave an IC50 [1] of 16.6 µM, an IC50 (Rat fibroblasts (CREF); mean of runs) of 26.5 µM and an IC50 (Rat fibroblasts (CREF); [4]) of 29.7 µM. It also gave an IC50 (Rat fibroblasts (CREF); [5]) of 23.2 µM, an IC50 (GAPDH; [4]) of 17.9 µM and an IC50 (GAPDH; [5]) of 15.3 µM. It also gave an IC50 (PEG-3 [2]; [4]) of 8.19 µM, an IC50 (PEG-3 [2]; [5]) of 4.5 µM and an IC50 (PEG-3 [3]) of 6.34 µM.
For O=c1cnnc(N/N=C/c2ccccn2)[nH]1, the IC50 [1] was > 100 µM (inactive), the IC50 (Rat fibroblasts (CREF); mean of runs) was 67.1 µM (inactive) and the IC50 (Rat fibroblasts (CREF); [4]) was over 100 µM. The IC50 (Rat fibroblasts (CREF); [5]) was 34.1 µM, the IC50 (GAPDH; [4]) was over 100 µM and the IC50 (GAPDH; [5]) was over 100 µM. It also gave an IC50 (PEG-3 [2]; [4]) of 1.69 µM, an IC50 (PEG-3 [2]; [5]) of 2.45 µM and an IC50 (PEG-3 [3]) of 2.07 µM.
Work on O=C(COc1ccc2c(c1)CCC2)Nc1ccccn1 yielded an IC50 [1] of 5.82 µM, an IC50 (Rat fibroblasts (CREF); mean of runs) of 33.2 µM and an IC50 (Rat fibroblasts (CREF); [4]) of 29.2 µM. For the same compound, the IC50 (Rat fibroblasts (CREF); [5]) was 37.2 µM, the IC50 (GAPDH; [4]) was 2.94 µM and the IC50 (GAPDH; [5]) was 8.7 µM. The IC50 (PEG-3 [2]; [4]) was 3.52 µM, the IC50 (PEG-3 [2]; [5]) was 5.59 µM and the IC50 (PEG-3 [3]) was 4.55 µM.
With CS(=O)(=O)c1ccc(-c2sc3ccccc3c2C#CCCO)cc1 the IC50 [1] was 28.9 µM, the IC50 (Rat fibroblasts (CREF); mean of runs) was 32.3 µM and the IC50 (Rat fibroblasts (CREF); [4]) was 27.7 µM. It also gave an IC50 (Rat fibroblasts (CREF); [5]) of 36.9 µM, an IC50 (GAPDH; [4]) of 30.2 µM and an IC50 (GAPDH; [5]) of 27.7 µM. The IC50 (PEG-3 [2]; [4]) was 14.3 µM, the IC50 (PEG-3 [2]; [5]) was 0.572 µM and the IC50 (PEG-3 [3]) was 7.42 µM.
For O=[N+]([O-])c1nn(-c2ccc3c(c2)OCCO3)n(O)c1=Nc1ccc(Cl)cc1, the IC50 [1] was 5.17 µM, the IC50 (Rat fibroblasts (CREF); mean of runs) was > 100 µM (inactive) and the IC50 (Rat fibroblasts (CREF); [4]) was over 100 µM. It also gave an IC50 (Rat fibroblasts (CREF); [5]) of over 100 µM, an IC50 (GAPDH; [4]) of 2.94 µM and an IC50 (GAPDH; [5]) of 7.41 µM. It also gave an IC50 (PEG-3 [2]; [4]) of 1.07 µM, an IC50 (PEG-3 [2]; [5]) of 0.271 µM and an IC50 (PEG-3 [3]) of 0.673 µM.
Compound COC(COC(N)=O)C1=C(N2CC2)C(=O)C(C)=C(N2CC2)C1=O (configuration not stated) has an IC50 [1] of 15 µM, an IC50 (Rat fibroblasts (CREF); mean of runs) of 4.51 µM and an IC50 (Rat fibroblasts (CREF); [4]) of 8.05 µM. For the same compound, the IC50 (Rat fibroblasts (CREF); [5]) was 0.958 µM, the IC50 (GAPDH; [4]) was 10.2 µM and the IC50 (GAPDH; [5]) was 19.8 µM. The IC50 (PEG-3 [2]; [4]) was 1.29 µM, the IC50 (PEG-3 [2]; [5]) was 0.583 µM and the IC50 (PEG-3 [3]) was 0.938 µM.
In the case of COc1ccc2c(c1)sc1nc(-c3ccccc3)cn12, the IC50 (Rat fibroblasts (CREF); mean of runs) is reported as 0.403 µM, the IC50 (Rat fibroblasts (CREF); [4]) is reported as 0.323 µM and the IC50 (Rat fibroblasts (CREF); [5]) is reported as 0.484 µM. It also gave an IC50 (PEG-3 [2]; [4]) of 2.46 µM, an IC50 (PEG-3 [2]; [5]) of 1.7 µM and an IC50 (PEG-3 [3]) of 2.08 µM.
For O=C(NCCc1ccccc1)c1ccc2c(c1)OCCCO2, the IC50 (Rat fibroblasts (CREF); mean of runs) was 0.589 µM, the IC50 (Rat fibroblasts (CREF); [4]) was 0.374 µM and the IC50 (Rat fibroblasts (CREF); [5]) was 0.803 µM. It also gave an IC50 (PEG-3 [2]; [4]) of 0.466 µM, an IC50 (PEG-3 [2]; [5]) of 0.647 µM and an IC50 (PEG-3 [3]) of 0.557 µM.

Reference: PubChem BioAssay AID624167 (Sanford-Burnham Center for Chemical Genomics, 2012)
